Columns and labels:
[1] = biological target: hNaV1.7 (Homo sapiens, UniProt Q15858); test: Voltage-dependent block (VDB) of hNaV1.7, QPatch whole-cell voltage-clamp in HEK-293 cells; type: cell-based; details: 8 s prepulse to −60 mV; at a given concentration (not given)
Protocol: (§1) Voltage-dependent block (VDB) of […] was determined by whole-cell voltage-clamp recordings of sodium current using a QPatch 16× automated electrophysiological system in HEK 293 cells overexpressing Nav 1.3 and Nav 1.7 sodium channels, respectively. VDB of peak current was measured using an 8 s conditioning prepulse (to -55 mV for NaV1.3 and to −60 mV for […]) followed by a test pulse (0 mV, 20 ms). Currents are normalized to the peak current recorded in the absence of drug and expressed as percent inhibition. […] Glucagon secretion in the cells was induced by the treatment with veratridine at 30 μM for 1 hour in Krebs-Ringer buffer containing 0.1% BSA. Percent inhibition of glucagon secretion by Na channel blockers was calculated from the reduction of veratridine-induced glucagon secretion in the absence of drug.
The cells were continuously maintained in a humidified, 5% CO2 atmosphere at 37° C. in MEM growth medium supplemented with 10% FBS, 2 mM L-glutamine, 100 U/mL penicillin, 100 μg/mL streptomycin, 0.6 mg/mL G418 and 2 μg/mL blastocydin.
(§2) Whole-cell voltage-clamp recordings were used to measure the activity of test compounds against hNaV1.3 and hNaV1.7. Sodium currents were recorded at room temperature using a QPatch 16× automated electrophysiological system (Sophion Bioscience, Copenhagen, Denmark). Cells were washed with PBS and then incubated with Detachin for 2 minutes at room temperature. Cells were then resuspended in growth media, pelleted by centrifugation and resuspended in CHO-S-SFM II serum free media supplemented with 100 U/mL penicillin, 100 μg/mL streptomycin and 10 mM HEPES. The cells were allowed to recover for 30 min at room temperature with constant stirring and then loaded into the QPatch cell holder.
(§3) The cells were loaded into primed single hole (2 MΩ) large QPlates and the whole-cell configuration was established using the default protocol. Cells were allowed to stabilize for 10 min after establishment of the whole-cell configuration before current was measured. […] All currents are low-pass Bessel filtered at 5 kHz and digitized at 50 kHz.
(§4) Specific voltage-clamp protocols assessing voltage-dependent block (VDB, also termed state-dependent block) are used. VDB of peak current was measured following an 8 s conditioning prepulse (to -55 mV for NaV1.3 and to −60 mV for NaV1.7) followed by a test pulse to 0 mV (20 ms). An interpulse (−120 mV, 10 ms) was used to recover non-drug bound channels from fast inactivation. The prepulse potential was determined by the steady-state inactivation curves for NaV1.3 and NaV1.7. […] Multiple applications of drug were used to ensure complete solution exchange and the cells were allowed to stabilize in the drug containing solution for two minutes. Currents were normalized to the peak current recorded in the absence of drug and expressed as percent inhibition.

[2] = test system: α-TC1 clone 9 cells; type: cell-based; details: for Glucagon Secretion % Inhibition: veratridine-induced (30 μM for 1 hour), at a given concentration (not given)
Protocol: as §1
Cells were seeded at 0.4×10^5/well in 96-well plates and allowed to recover for 1 day. The media was then changed to serum-free DMEM and incubated overnight. Cells were then treated with sodium-channel blockers in the presence of veratridine (15 μM) in Krebs-Ringer buffer containing 0.1% BSA and 3 mM glucose for 1 h. Supernatants were collected and stored at −80° C. until analysis. Glucagon levels were measured by an ELISA kit.

[3] = biological target: T1, hNaV1.3 (Homo sapiens, UniProt Q9NY46); test: Voltage-dependent block (VDB) of hNaV1.3, QPatch whole-cell voltage-clamp in HEK-293 cells; type: cell-based; details: 8 s prepulse to -55 mV; at a given concentration (not given)
T1 construct: (Vanderbilt University, Nashville, Tenn.)
Protocol: as §1
(Vanderbilt University, Nashville, Tenn.). The cells were continuously maintained in a humidified, 5% CO2 atmosphere at 37° C. in DMEM high glucose growth medium supplemented with 10% FBS, 2 mM L-glutamine, 100 U/mL penicillin, 100 μg/mL streptomycin, 1 mg/mL G418 and 3 μg/mL puromycin.
as §2, §3, §4

[4] = test system: rat pancreatic islets; test: Veratridine-induced glucagon secretion in rat pancreatic islets; type: cell-based
[5] = test system: rat pancreatic islets; test: Glucagon secretion in rat pancreatic islets under low glucose (3 mM), ELISA; type: cell-based
[6] = test system: human pancreatic islets; test: Veratridine-induced glucagon secretion in human pancreatic islets; type: cell-based; details: veratridine 30 μM
[7] = test system: ZDF diabetic rats; test: ZDF diabetic rats, animal model of type 2 diabetes; type: in vivo, rat
Protocol: All sections from fluorescent staining were viewed under fluorescent microscope and the stained areas were digitally photographed at a magnification of 20×. The images taken at different magnification were normalized using the standard ruler grade (S1 Finder Graticule, 68040, Electron Microscopy Science, Hatfield, Pa.). Analyses of islet areas and entire section areas were performed using ImageJ software (NIH, MD). Three sections from each of 6 animals per treatment group were analyzed. Data are presented as mean±SEM. *, p<0.05; **, p<0.01; ***, p<0.001 by One-way ANOVA.
Male ZDF Leprfa/Crl rats were received at 5 weeks of age from Charles River Laboratories Inc., (Wilmington, Mass.) and were acclimated until study initiation at 6 weeks of age. Drugs were given to the animals in Purina 5008 for 10 weeks at doses approximately 170 mg/kg/d of ranolazine, 0.6 mg/kg/d of compound A and 30 mg/kg/d of sitagliptin as positive control. Fasting (12-14 h fast) and non-fasting blood samples were obtained by tail-nick and blood glucose was measured using a Freestyle Lite glucose meter (Abbott Laboratories Inc., Abbott Park, Ill.). HbA1c levels were monitored every other week. Twenty four hour water consumption as surrogate marker for diabetes for each rat was measured at least once per week.

Sequence of hNaV1.7 (Q15858 1-1977 isoform Q15858-3): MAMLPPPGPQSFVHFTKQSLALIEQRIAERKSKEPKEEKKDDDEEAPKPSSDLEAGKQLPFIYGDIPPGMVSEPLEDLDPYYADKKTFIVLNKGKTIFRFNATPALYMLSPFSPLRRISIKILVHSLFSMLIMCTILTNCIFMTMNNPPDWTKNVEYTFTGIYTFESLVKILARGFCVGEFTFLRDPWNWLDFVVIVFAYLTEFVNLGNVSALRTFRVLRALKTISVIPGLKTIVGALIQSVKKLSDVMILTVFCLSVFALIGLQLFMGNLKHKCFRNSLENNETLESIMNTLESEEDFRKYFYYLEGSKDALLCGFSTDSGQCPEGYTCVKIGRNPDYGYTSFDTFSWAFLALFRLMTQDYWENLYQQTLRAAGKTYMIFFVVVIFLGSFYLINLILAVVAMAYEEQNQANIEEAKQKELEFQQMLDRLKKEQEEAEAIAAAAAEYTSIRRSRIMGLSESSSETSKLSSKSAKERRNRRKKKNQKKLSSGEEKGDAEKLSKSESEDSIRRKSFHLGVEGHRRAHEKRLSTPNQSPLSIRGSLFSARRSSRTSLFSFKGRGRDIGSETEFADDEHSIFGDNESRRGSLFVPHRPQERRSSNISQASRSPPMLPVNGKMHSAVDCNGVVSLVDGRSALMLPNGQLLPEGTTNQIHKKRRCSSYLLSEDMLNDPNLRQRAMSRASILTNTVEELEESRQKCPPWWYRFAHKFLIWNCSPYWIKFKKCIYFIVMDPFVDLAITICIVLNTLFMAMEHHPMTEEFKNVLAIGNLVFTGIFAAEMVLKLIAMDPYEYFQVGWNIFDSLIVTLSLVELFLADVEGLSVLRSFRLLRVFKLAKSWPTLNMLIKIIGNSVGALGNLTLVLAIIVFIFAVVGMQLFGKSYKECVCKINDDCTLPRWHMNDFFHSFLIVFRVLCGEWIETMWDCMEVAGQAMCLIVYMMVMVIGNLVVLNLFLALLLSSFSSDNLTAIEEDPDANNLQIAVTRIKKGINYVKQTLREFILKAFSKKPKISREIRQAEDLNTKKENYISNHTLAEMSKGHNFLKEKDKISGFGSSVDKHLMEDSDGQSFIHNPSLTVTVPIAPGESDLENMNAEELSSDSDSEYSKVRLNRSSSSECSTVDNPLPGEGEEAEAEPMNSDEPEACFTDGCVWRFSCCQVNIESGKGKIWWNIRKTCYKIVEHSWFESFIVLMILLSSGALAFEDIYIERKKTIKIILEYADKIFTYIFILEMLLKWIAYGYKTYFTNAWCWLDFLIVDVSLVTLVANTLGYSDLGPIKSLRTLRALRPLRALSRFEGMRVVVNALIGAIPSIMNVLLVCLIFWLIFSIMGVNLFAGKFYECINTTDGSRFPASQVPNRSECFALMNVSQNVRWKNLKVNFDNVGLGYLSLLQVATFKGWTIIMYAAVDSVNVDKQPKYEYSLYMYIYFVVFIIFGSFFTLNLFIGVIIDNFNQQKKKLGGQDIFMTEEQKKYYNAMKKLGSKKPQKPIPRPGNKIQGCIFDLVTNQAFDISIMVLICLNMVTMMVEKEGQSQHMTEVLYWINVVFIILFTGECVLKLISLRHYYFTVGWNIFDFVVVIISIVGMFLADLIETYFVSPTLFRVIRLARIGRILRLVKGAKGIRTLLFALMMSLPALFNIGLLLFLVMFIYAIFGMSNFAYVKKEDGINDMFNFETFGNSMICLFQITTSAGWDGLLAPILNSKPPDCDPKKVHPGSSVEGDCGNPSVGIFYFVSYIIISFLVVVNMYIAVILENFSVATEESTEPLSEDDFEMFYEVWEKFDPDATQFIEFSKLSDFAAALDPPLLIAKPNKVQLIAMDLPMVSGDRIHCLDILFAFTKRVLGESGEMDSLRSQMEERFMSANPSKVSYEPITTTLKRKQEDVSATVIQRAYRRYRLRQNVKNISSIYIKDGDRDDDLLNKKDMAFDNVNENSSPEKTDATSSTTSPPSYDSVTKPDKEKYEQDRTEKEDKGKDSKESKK
Sequence of hNaV1.7 (Q07699 19-218 partner): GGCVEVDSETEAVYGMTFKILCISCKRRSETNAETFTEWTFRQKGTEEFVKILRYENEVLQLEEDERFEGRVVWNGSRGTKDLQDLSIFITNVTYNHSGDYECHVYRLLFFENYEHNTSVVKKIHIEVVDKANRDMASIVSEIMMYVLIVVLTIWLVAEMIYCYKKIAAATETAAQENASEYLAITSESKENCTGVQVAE
T1 sequence (Q9NY46 1-1951 isoform Q9NY46-4): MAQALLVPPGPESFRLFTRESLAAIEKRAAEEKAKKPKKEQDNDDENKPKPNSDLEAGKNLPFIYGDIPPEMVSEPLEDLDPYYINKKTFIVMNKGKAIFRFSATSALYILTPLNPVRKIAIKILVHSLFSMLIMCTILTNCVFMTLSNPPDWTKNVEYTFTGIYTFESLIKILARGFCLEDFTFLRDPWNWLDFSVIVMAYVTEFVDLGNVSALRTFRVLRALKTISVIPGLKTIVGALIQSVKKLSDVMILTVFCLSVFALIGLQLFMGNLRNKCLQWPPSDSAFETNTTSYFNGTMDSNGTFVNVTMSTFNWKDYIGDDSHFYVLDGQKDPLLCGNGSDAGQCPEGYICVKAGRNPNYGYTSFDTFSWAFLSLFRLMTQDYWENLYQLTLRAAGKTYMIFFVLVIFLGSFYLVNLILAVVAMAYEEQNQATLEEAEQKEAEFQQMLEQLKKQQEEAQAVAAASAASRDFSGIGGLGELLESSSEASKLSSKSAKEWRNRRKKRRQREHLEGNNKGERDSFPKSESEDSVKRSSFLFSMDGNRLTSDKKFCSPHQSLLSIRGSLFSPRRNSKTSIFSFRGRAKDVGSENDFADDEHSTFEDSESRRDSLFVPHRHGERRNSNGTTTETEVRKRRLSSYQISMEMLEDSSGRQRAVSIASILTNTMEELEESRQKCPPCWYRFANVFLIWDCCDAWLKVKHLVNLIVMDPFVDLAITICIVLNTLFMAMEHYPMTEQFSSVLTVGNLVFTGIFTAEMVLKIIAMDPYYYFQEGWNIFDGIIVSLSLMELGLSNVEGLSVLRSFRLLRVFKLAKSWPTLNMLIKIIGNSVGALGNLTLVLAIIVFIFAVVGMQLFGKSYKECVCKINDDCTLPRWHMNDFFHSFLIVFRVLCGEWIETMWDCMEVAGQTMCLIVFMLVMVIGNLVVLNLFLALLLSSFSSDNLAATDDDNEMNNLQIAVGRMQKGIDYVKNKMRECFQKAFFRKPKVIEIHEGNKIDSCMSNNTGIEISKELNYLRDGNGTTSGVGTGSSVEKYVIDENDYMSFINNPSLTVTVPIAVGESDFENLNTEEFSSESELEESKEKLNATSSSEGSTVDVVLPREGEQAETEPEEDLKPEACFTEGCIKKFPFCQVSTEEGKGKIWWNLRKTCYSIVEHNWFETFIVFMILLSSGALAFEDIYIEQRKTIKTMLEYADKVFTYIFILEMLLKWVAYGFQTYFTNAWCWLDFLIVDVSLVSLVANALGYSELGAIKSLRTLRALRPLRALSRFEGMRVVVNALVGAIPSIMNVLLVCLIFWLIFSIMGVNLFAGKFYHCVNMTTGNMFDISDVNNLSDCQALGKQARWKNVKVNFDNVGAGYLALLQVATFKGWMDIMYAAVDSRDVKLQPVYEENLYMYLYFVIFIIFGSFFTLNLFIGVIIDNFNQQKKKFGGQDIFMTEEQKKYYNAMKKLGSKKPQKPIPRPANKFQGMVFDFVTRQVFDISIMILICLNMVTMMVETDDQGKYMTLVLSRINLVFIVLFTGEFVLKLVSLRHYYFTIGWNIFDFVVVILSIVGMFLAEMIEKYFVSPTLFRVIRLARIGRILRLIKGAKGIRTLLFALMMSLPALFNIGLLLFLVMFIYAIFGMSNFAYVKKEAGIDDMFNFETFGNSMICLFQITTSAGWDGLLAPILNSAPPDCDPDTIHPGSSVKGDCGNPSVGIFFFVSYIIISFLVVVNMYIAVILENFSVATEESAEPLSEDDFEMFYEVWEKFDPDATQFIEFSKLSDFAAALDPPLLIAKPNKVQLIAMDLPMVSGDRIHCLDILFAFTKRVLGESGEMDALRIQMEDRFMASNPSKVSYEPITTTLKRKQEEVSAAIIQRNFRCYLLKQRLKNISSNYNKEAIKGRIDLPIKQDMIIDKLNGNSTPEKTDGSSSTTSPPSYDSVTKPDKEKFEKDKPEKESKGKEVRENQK
T1 sequence (Q07699 19-218 partner): as the sequence (Q07699 19-218 partner) above
T1 sequence (O60939 30-215 partner): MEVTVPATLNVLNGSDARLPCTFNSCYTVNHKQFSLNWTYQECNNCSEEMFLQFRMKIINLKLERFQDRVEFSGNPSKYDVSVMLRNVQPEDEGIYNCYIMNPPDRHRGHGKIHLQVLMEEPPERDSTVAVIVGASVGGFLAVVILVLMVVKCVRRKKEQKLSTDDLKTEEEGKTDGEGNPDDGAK

| SMILES | hNav1.7 VDB % Inhibition [1] | Glucagon Secretion % Inhibition [2] | hNav1.3 VDB % Inhibition [3] | further results |
| --- | --- | --- | --- | --- |
| O=C(NCc1ccc(C(F)(F)F)c(Cl)c1)c1ccc(S(=O)(=O)Nc2ncc(Cl)s2)cc1 [C, N-(3-chloro-4-(trifluoromethyl)benzyl)-4-(N-(5-chlorothiazol-2-yl)sulfamoyl)benzamide] | 7.81% | 41% | 92.16% | – |
| FC(F)(F)Oc1ccc(-c2ccc3nnc(Oc4ccccc4)n3c2)cc1 [D, 3-phenoxy-6-(4-(trifluoromethoxy)phenyl)-[1,2,4]triazolo[4,3-a]pyridine] | 89.74% | 33.75% | 49.35% | – |
| CC(C)(C)OC(=O)N[C@H](Cc1ccccc1)C(=O)N[C@@H]1CCc2ccccc2N(CC(F)(F)F)C1 [E, tert-butyl (R)-1-oxo-3-phenyl-1-((R)-1-(2,2,2-trifluoroethyl)-2,3,4,5-tetrahydro-1H-benzo[b]azepin-3-ylamino)propan-2-ylcarbamate] | 23.73% | 34.53% | 23.18% | – |
| COCC(F)(F)c1nnc2ccc(-c3ccc(Oc4ccc(Cl)cc4)cc3)cn12 [F, 6-(4-(4-chlorophenoxy)phenyl)-3-(1,1-difluoro-2-methoxyethyl)-[1,2,4]triazolo[4,3-a]pyridine] | 14.72% | 4% | 2.32% | – |
| CS(=O)(=O)Nc1ccc(-c2ccc(Cl)c(C(F)(F)F)c2)c(Cl)c1 [G, N-(2,4′-dichloro-3′-(trifluoromethyl)biphenyl-4-yl)methanesulfonamide] | 6.04% | 3.5% | 4.01% | – |
| NC1=N[C@H](O)[C@H]2[C@H]3O[C@]4(O)O[C@@H]([C@@H](O)[C@@]2(N1)[C@@H]4O)[C@]3(O)CO [TTX, tetrodotoxin] | – | – | – | reduction of veratridine-induced glucagon secretion (in words) [4]: concentration-dependently reduced; reduction of veratridine-induced increase of glucagon secretion [2]: 100±6%; maximal reduction of glucagon secretion as compared to the vehicle control [5]: 47±6% |
| COc1ccc(C(=O)O[C@H]2CC[C@@]3(C)[C@@H]4CC[C@H]5[C@]6(O)C[C@H](O)[C@@]7(O)[C@@H](CN8C[C@@H](C)CC[C@H]8[C@@]7(C)O)[C@]6(O)C[C@@]53O[C@]24O)cc1OC [Veratridine] | – | – | – | increase in glucagon secretion ([4]; veratridine at 30 μM): more than 3 fold; increase in glucagon secretion [6]: ~9 fold |
| N[C@@H](CC(=O)N1CCn2c(nnc2C(F)(F)F)C1)Cc1cc(F)c(F)cc1F [sitagliptin] | – | – | – | insulin staining per islet ([7]; 10 weeks treatment): 90.0±2.1%; islet area/pancreas area ([7]; 10 weeks treatment): 0.98±0.3%; staining of glucagon per islet versus vehicle ([7]; 10 weeks treatment): significantly less; water consumption (surrogate marker for diabetes) ([7]; in Purina 5008 diet, during diabetes development): significantly prevented the increase; HbA1c levels versus vehicle group ([7]; in Purina 5008 diet, weeks 4, 6 and 8): significantly lower; fasting plasma glucose levels versus vehicle ([7]; in Purina 5008 diet, weeks 7 and 9): significantly lower |
